Laboratory results: PubChem BioAssay (NCI)
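Interpolation was linear, between the two tested concentrations surrounding the appropriate level; five concentrations were tested over 48 hours in 96-well plates. GI50 = concentration required for 50% inhibition of growth. At the TGI there is no net growth.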

How the values were obtained:
Assay in all cases: NCI-60 cell line screen, 48 h
[1] = tested on: HT29 colon
[2] = tested on: HCC-2998 colon
[3] = tested on: SW-620 colon
[4] = tested on: U251 CNS
[5] = tested on: T-47D breast
[6] = tested on: OVCAR-3 ovarian
[7] = tested on: COLO 205 colon
[8] = tested on: UACC-62 melanoma
[9] = tested on: HS 578T breast
[10] = tested on: HOP-92 NSCLC
[11] = tested on: NCI-H460 lung
[12] = tested on: LOX IMVI melanoma
[13] = tested on: K-562 leukemia
[14] = tested on: RPMI-8226 leukemia
[15] = tested on: UACC-257 melanoma
[16] = tested on: SF-295 CNS
[17] = tested on: A549 NSCLC
[18] = tested on: HCT-15 colon
[19] = tested on: SF-268 CNS
[20] = tested on: MDA-MB-435
[21] = tested on: A498 renal
[22] = tested on: SK-MEL-28 melanoma
[23] = tested on: SK-MEL-2 melanoma
[24] = tested on: MALME-3M melanoma
[25] = tested on: PC-3 prostate
[26] = tested on: MOLT-4 leukemia
[27] = tested on: M14 melanoma
[28] = tested on: SNB-19 CNS
[29] = tested on: SK-MEL-5 melanoma
[30] = tested on: RXF 393 renal
[31] = tested on: HOP-62 NSCLC
[32] = tested on: SN12C renal
[33] = tested on: NCI-H522 lung
[34] = tested on: ACHN renal
[35] = tested on: OVCAR-5 ovarian
[36] = tested on: BT-549 breast
[37] = tested on: HL-60(TB) leukemia
[38] = tested on: MDA-MB-231 breast
[39] = tested on: SF-539 CNS
[40] = tested on: SNB-75 CNS
[41] = tested on: TK-10 renal
[42] = tested on: SR leukemia
[43] = tested on: NCI-H226 lung
[44] = tested on: IGROV1 ovarian
[45] = tested on: CCRF-CEM leukemia
[46] = tested on: DU-145 prostate
[47] = tested on: CAKI-1 renal
[48] = tested on: MCF7 breast
[49] = tested on: KM12 colon
[50] = tested on: UO-31 renal
[51] = tested on: NCI/ADR-RES ovarian
[52] = tested on: EKVX NSCLC
[53] = tested on: 786-0 renal
[54] = tested on: SK-OV-3 ovarian
[55] = tested on: NCI-H23 lung
[56] = tested on: OVCAR-8 ovarian
[57] = tested on: HCT-116 colon
[58] = tested on: OVCAR-4 ovarian

## O=C(CCCCCCCCC(=O)N/N=C\c1ccccc1O)N/N=C\c1ccccc1O
[1]
  GI50: 4.62 µM
  TGI: > 36.6 µM
[2]
  GI50: 2.92 µM
  TGI: > 100 µM
[3]
  GI50: 1.28 µM
  TGI: 24.1 µM
[4]
  GI50: 0.308 µM
  TGI: 9.14 µM
[5]
  GI50: 2.89 µM
  TGI: > 49.4 µM
[6]
  GI50: 0.343 µM
  TGI: > 51.2 µM
[7]
  GI50: 2.63 µM
  TGI: > 35.2 µM
[8]
  GI50: 0.331 µM
  TGI: 5.54 µM
[9]
  GI50: 3.55 µM
  TGI: 41.6 µM
[10]
  GI50: 0.216 µM
  TGI: 0.889 µM
[11]
  GI50: 0.27 µM
  TGI: 1.47 µM
[12]
  GI50: 0.273 µM
  TGI: 6.07 µM
[13]
  GI50: 0.398 µM
  TGI: 27.8 µM
[14]
  GI50: 1.03 µM
  TGI: 35.8 µM
[15]
  GI50: 0.368 µM
  TGI: 4.07 µM
[16]
  GI50: 1.07 µM
  TGI: 31.7 µM
[17]
  GI50: 0.81 µM
  TGI: > 25.2 µM
[18]
  GI50: 0.298 µM
  TGI: > 100 µM
[19]
  GI50: 0.342 µM
  TGI: 9.72 µM
[20]
  GI50: 0.704 µM
  TGI: > 100 µM
[21]
  GI50: 3.1 µM
  TGI: 26.9 µM
[22]
  GI50: 1.08 µM
  TGI: > 100 µM
[23]
  GI50: 0.469 µM
  TGI: > 36.8 µM
[24]
  GI50: 0.566 µM
  TGI: 17.7 µM
[25]
  GI50: 0.855 µM
  TGI: > 58.6 µM
[26]
  GI50: 0.338 µM
  TGI: 7.37 µM
[27]
  GI50: 0.306 µM
  TGI: 1.78 µM
[28]
  GI50: 0.763 µM
  TGI: > 59.4 µM
[29]
  GI50: 0.231 µM
  TGI: 1.12 µM
[30]
  GI50: 0.353 µM
  TGI: 2.95 µM
[31]
  GI50: 0.418 µM
  TGI: 4.72 µM
[32]
  GI50: 0.7 µM
  TGI: > 42.4 µM
[33]
  GI50: 0.257 µM
  TGI: > 100 µM
[34]
  GI50: 0.235 µM
  TGI: 20.1 µM
[35]
  GI50: 3.35 µM
  TGI: > 90.3 µM
[36]
  GI50: 0.982 µM
  TGI: > 100 µM
[37]
  GI50: 0.203 µM
  TGI: 0.687 µM
[38]
  GI50: 0.225 µM
  TGI: 32.2 µM
[39]
  GI50: 0.452 µM
  TGI: 17.4 µM
[40]
  GI50: 1.82 µM
  TGI: 15.3 µM
[41]
  GI50: 1.87 µM
  TGI: > 46.7 µM
[42]
  GI50: 0.16 µM
  TGI: 12.9 µM
[43]
  GI50: 0.49 µM
  TGI: 11 µM
[44]
  GI50: 1.73 µM
  TGI: 54.5 µM
[45]
  GI50: 0.228 µM
  TGI: 17.4 µM
[46]
  GI50: 0.579 µM
  TGI: 15.5 µM
[47]
  GI50: 0.318 µM
  TGI: 14.9 µM
[48]
  GI50: 1.99 µM
  TGI: > 100 µM
[49]
  GI50: 0.785 µM
  TGI: > 40.3 µM
[50]
  GI50: 0.197 µM
  TGI: 3.9 µM
[51]
  GI50: 0.514 µM
  TGI: 25.4 µM
[52]
  GI50: 1.53 µM
  TGI: > 69.6 µM
[53]
  GI50: 0.334 µM
  TGI: 1.99 µM
[54]
  GI50: 0.899 µM
  TGI: 15.6 µM
[55]
  GI50: 0.75 µM
  TGI: 21.9 µM
[56]
  GI50: 0.349 µM
  TGI: 5.8 µM
[57]
  GI50: 0.459 µM
  TGI: 15.2 µM
[58]
  GI50: 0.33 µM
  TGI: > 100 µM
